“And” between values parts separate entries of the source, which are not always exact repeats. Identical values can stand only once.
System: Swiss mice, Sarcoma 180 sc, mean tumor weight T/C
Experiment: NCI In Vivo Anticancer Drug Screen. Data for tumor model Sarcoma 180 (subcutaneous) in Swiss mice
Conditions: endpoint: mean tumor weight, higher = larger tumour
Description: The antitumor activity of compounds was measured in mice bearing transplantable tumors. Survival or tumor size were measured and the results are expressed as the measurement made in the treated group (T) divided by the measurement made in the vehicle treated control group (C). The tumor model used in this assay is Sarcoma 180 (subcutaneous) in Swiss mice

[1] = dose: 50.0 mg/kg/injection, schedule: Q01DX007 (ip), vehicle: carboxymethylcellulose (CMC)
[2] = dose: 100.0 mg/kg/injection, schedule: Q01DX007 (ip), vehicle: carboxymethylcellulose (CMC)
[3] = dose: 6.0 mg/kg/injection, schedule: Q01DX007 (ip), vehicle: other
[4] = dose: 9.0 mg/kg/injection, schedule: Q01DX007 (ip), vehicle: other
[5] = dose: 55.0 mg/kg/injection, schedule: Q01DX007 (ip), vehicle: carboxymethylcellulose (CMC)
[6] = dose: 25.0 mg/kg/injection, schedule: Q01DX007 (ip), vehicle: carboxymethylcellulose (CMC)
[7] = dose: 125.0 mg/kg/injection, schedule: Q01DX007 (ip), vehicle: other

In the case of `CCn1cnc2c(=S)nc[nH]c21`, the T/C [1] is reported as 55 % of control and the T/C [2] is reported as 25 % of control.
With `CC(=O)OC/N=[N+](/C)[O-]` the T/C (dose: 4.68 mg/kg/injection, schedule: Q01DX007 (ip), vehicle: saline) was 84 % of control and the T/C (dose: 9.37 mg/kg/injection, schedule: Q01DX007 (ip), vehicle: saline) was 54 % of control.
For `COC(=O)[C@@H]1c2cc3c(c(O)c2[C@@H](OC2OC(C)C(OC)C(C)(OC)C2OC)C[C@]1(C)O)C(=O)c1c(O)cc2c(c1C3=O)O[C@H]1O[C@]2(C)[C@H](O)[C@@H](N(C)C)[C@@H]1O` (some centres not stated), the T/C (dose: 0.2 mg/kg/injection, schedule: Q01DX007 (ip), vehicle: saline) was 77 % of control, the T/C (dose: 0.3 mg/kg/injection, schedule: Q01DX007 (ip), vehicle: saline) was 81 % of control and the T/C (dose: 0.44 mg/kg/injection, schedule: Q01DX007 (ip), vehicle: saline) was 60 % of control. The T/C (dose: 0.67 mg/kg/injection, schedule: Q01DX007 (ip), vehicle: saline) was 57 % of control and the T/C (dose: 1.0 mg/kg/injection, schedule: Q01DX007 (ip), vehicle: saline) was 50 % of control.
`Cn1c(N)nc2nc[nH]c2c1=S` was tested, and the T/C (dose: 1.35 mg/kg/injection, schedule: Q#A X014 (ip), vehicle: methylcellulose (MC)) was 108 % of control, the T/C (dose: 2.0 mg/kg/injection, schedule: Q#A X014 (ip), vehicle: methylcellulose (MC)) was 45 % of control and the T/C (dose: 3.0 mg/kg/injection, schedule: Q#A X014 (ip), vehicle: methylcellulose (MC)) was 67 % of control. For the same molecule, the T/C (dose: 4.5 mg/kg/injection, schedule: Q#A X014 (ip), vehicle: methylcellulose (MC)) was 37 % of control.
For `C[C@]12CCc3c(ccc4cc(O)ccc34)[C@@H]1C[C@H](O)[C@@H]2O`, the T/C (dose: 2.5 mg/kg/injection, schedule: Q01DX007 (sc), vehicle: steriod suspending solution) was 90 % of control and the T/C (dose: 10.0 mg/kg/injection, schedule: Q01DX007 (sc), vehicle: steriod suspending solution) was 95 % of control.
In the case of `COc1cc2c3c(c4cc(OC)c(OC)cc4c2cc1OC)CN1CCC[C@H]1C3`, the T/C (dose: 10.0 mg/kg/injection, schedule: Q01DX007 (ip), vehicle: water) is reported as 70 % of control, the T/C (dose: 12.0 mg/kg/injection, schedule: Q01DX007 (ip), vehicle: water) is reported as 81 % of control and the T/C (dose: 18.0 mg/kg/injection, schedule: Q01DX007 (ip), vehicle: water) is reported as 42 % of control.
In the case of `Nc1nc(SN=Nc2ccc(S(=O)(=O)O)cc2)c2[nH]cnc2n1`, the T/C (dose: 1.75 mg/kg/injection, schedule: Q01DX007 (ip), vehicle: other) is reported as 104 % of control, the T/C (dose: 3.5 mg/kg/injection, schedule: Q01DX007 (ip), vehicle: other) is reported as 80 % of control and the T/C [3] is reported as 65 % of control. The T/C (dose: 7.0 mg/kg/injection, schedule: Q01DX007 (ip), vehicle: other) was 46 % of control, the T/C [4] was 57 % of control and the T/C (dose: 14.0 mg/kg/injection, schedule: Q01DX007 (ip), vehicle: other) was 18 % of control and 27 % of control and 33 % of control. The T/C (dose: 21.0 mg/kg/injection, schedule: Q01DX007 (ip), vehicle: other) was 1 % of control and 14 % of control.
For `CCCCCCCCCCCCOP(N)(=O)OCCCCCCCCCCCC`, the T/C (dose: 20.0 mg/kg/injection, schedule: Q01DX007 (ip), vehicle: carboxymethylcellulose (CMC)) was 73 % of control, the T/C [5] was 86 % of control and the T/C (dose: 55.5 mg/kg/injection, schedule: Q01DX007 (ip), vehicle: carboxymethylcellulose (CMC)) was 49 % of control. For the same molecule, the T/C (dose: 80.0 mg/kg/injection, schedule: Q01DX007 (ip), vehicle: carboxymethylcellulose (CMC)) was 103 % of control, the T/C (dose: 83.0 mg/kg/injection, schedule: Q01DX007 (ip), vehicle: carboxymethylcellulose (CMC)) was 71 % of control and the T/C (dose: 83.3 mg/kg/injection, schedule: Q01DX007 (ip), vehicle: carboxymethylcellulose (CMC)) was 54 % of control. For the same molecule, the T/C (dose: 120.0 mg/kg/injection, schedule: Q01DX007 (ip), vehicle: carboxymethylcellulose (CMC)) was 54 % of control, the T/C (dose: 125.0 mg/kg/injection, schedule: Q01DX007 (ip), vehicle: carboxymethylcellulose (CMC)) was 42 % of control and the T/C (dose: 187.5 mg/kg/injection, schedule: Q01DX007 (ip), vehicle: carboxymethylcellulose (CMC)) was 22 % of control.
In the case of `CN(N=O)C(=O)Nc1c[nH]c(=O)[nH]c1=O`, the T/C (dose: 25.0 mg/kg/injection, schedule: Q#A X014 (ip), vehicle: carboxymethylcellulose (CMC)) is reported as 33 % of control.
With `CC(=O)C1=C(O)C2(O)C(=O)c3c(c(C)c4ccc(C)c(O)c4c3O)CC2C(N)C1=O` (configuration not stated) the T/C (dose: 18.8 mg/kg/injection, schedule: Q01DX007 (ip), vehicle: saline) was 114 % of control, the T/C (dose: 37.5 mg/kg/injection, schedule: Q01DX007 (ip), vehicle: saline) was 112 % of control and the T/C (dose: 75.0 mg/kg/injection, schedule: Q01DX007 (ip), vehicle: saline) was 81 % of control. The T/C (dose: 150.0 mg/kg/injection, schedule: Q01DX007 (ip), vehicle: saline) was 104 % of control.
With `O=C(O)Cc1ccc(C2CCCCC2)cc1` the T/C (dose: 37.5 mg/kg/injection, schedule: Q01DX007 (ip), vehicle: carboxymethylcellulose (CMC)) was 120 % of control, the T/C (dose: 75.0 mg/kg/injection, schedule: Q01DX007 (ip), vehicle: carboxymethylcellulose (CMC)) was 115 % of control and the T/C (dose: 150.0 mg/kg/injection, schedule: Q01DX007 (ip), vehicle: carboxymethylcellulose (CMC)) was 80 % of control. For the same molecule, the T/C (dose: 300.0 mg/kg/injection, schedule: Q01DX007 (ip), vehicle: carboxymethylcellulose (CMC)) was 70 % of control and 75 % of control and the T/C (dose: 600.0 mg/kg/injection, schedule: Q01DX007 (ip), vehicle: carboxymethylcellulose (CMC)) was 67 % of control.
In the case of `COS(C)(=O)=O`, the T/C [6] is reported as 89 % of control and the T/C [1] is reported as 66 % of control.
For `SCc1ccccn1`, the T/C (dose: 62.0 mg/kg/injection, schedule: Q01DX007 (ip), vehicle: other) was 117 % of control and the T/C [7] was 103 % of control.
In the case of `CC(=O)Nc1c(Cl)c(Cl)c2c(c1Cl)Cc1cc(Br)ccc1-2`, the T/C (dose: 3.0 mg/kg/injection, schedule: Q01DX007 (ip), vehicle: carboxymethylcellulose (CMC)) is reported as 75 % of control, the T/C (dose: 6.0 mg/kg/injection, schedule: Q01DX007 (ip), vehicle: carboxymethylcellulose (CMC)) is reported as 74 % of control and the T/C [3] is reported as 38 % of control. The T/C [4] was 69 % of control, the T/C (dose: 12.0 mg/kg/injection, schedule: Q01DX007 (ip), vehicle: carboxymethylcellulose (CMC)) was 45 % of control and the T/C (dose: 13.0 mg/kg/injection, schedule: Q01DX007 (ip), vehicle: other) was 46 % of control. For the same molecule, the T/C (dose: 19.0 mg/kg/injection, schedule: Q01DX007 (ip), vehicle: other) was 56 % of control, the T/C [6] was 63 % of control and the T/C (dose: 28.0 mg/kg/injection, schedule: Q01DX007 (ip), vehicle: other) was 35 % of control. The T/C (dose: 41.0 mg/kg/injection, schedule: Q01DX007 (ip), vehicle: other) was 62 % of control, the T/C [1] was 49 % of control and the T/C (dose: 63.0 mg/kg/injection, schedule: Q01DX007 (ip), vehicle: other) was 33 % of control. The T/C [2] was 30 % of control.
For `c1ccc2c(c1)-c1cccc3c1c-2cc1ccccc13`, the T/C (dose: 25.0 mg/kg/injection, schedule: Q01DX007 (ip), vehicle: other) was 53 % of control, the T/C (dose: 36.0 mg/kg/injection, schedule: Q01DX007 (ip), vehicle: other) was 36 % of control and 47 % of control and the T/C [5] was 35 % of control. The T/C (dose: 55.0 mg/kg/injection, schedule: Q01DX007 (ip), vehicle: other) was 57 % of control, the T/C (dose: 82.5 mg/kg/injection, schedule: Q01DX007 (ip), vehicle: other) was 26 % of control and 42 % of control and the T/C [7] was 14 % of control.
For `COC(=O)CC(C(=O)C=[N+]=[N-])N1C(=O)c2ccccc2C1=O` (configuration not stated), the T/C (dose: 0.03 mg/kg/injection, schedule: Q01DX007 (ip), vehicle: carboxymethylcellulose (CMC)) was 112 % of control, the T/C (dose: 0.05 mg/kg/injection, schedule: Q01DX007 (ip), vehicle: carboxymethylcellulose (CMC)) was 89 % of control and the T/C (dose: 0.1 mg/kg/injection, schedule: Q01DX007 (ip), vehicle: carboxymethylcellulose (CMC)) was 101 % of control. For the same molecule, the T/C (dose: 0.2 mg/kg/injection, schedule: Q01DX007 (ip), vehicle: carboxymethylcellulose (CMC)) was 95 % of control and 102 % of control, the T/C (dose: 0.4 mg/kg/injection, schedule: Q01DX007 (ip), vehicle: carboxymethylcellulose (CMC)) was 115 % of control and the T/C (dose: 0.8 mg/kg/injection, schedule: Q01DX007 (ip), vehicle: carboxymethylcellulose (CMC)) was 88 % of control and 91 % of control. The T/C (dose: 3.2 mg/kg/injection, schedule: Q01DX007 (ip), vehicle: carboxymethylcellulose (CMC)) was 99 % of control, the T/C (dose: 6.4 mg/kg/injection, schedule: Q01DX007 (ip), vehicle: carboxymethylcellulose (CMC)) was 70 % of control and 83 % of control and the T/C (dose: 12.8 mg/kg/injection, schedule: Q01DX007 (ip), vehicle: carboxymethylcellulose (CMC)) was 87 % of control. For the same molecule, the T/C (dose: 25.6 mg/kg/injection, schedule: Q01DX007 (ip), vehicle: carboxymethylcellulose (CMC)) was 84 % of control.

From PubChem BioAssay AID342 (DTP/NCI, 2004)
